This passage reports sdLDL oxidation and LDL oxidation results from patent US20180028480A1, “METHODS OF REDUCING OR PREVENTING OXIDATIVE MODIFICATION OF MEMBRANE POLYUNSATURATED FATTY ACIDS” (Amarin Pharmaceuticals Ireland Limited, priority 2015, published 2018).

In one experiment the test system is human sdLDL. The experiment can be described thus: Copper-induced sdLDL oxidation, TBARS (Example 6). The following applies: 1.0 μM to 10.0 μM; 2 hr copper oxidation. Format: biochemical. The procedure: An experiment to study the antioxidant effect of EPA in small dense LDL (“sdLDL”) was performed. EPA was purchased from Sigma-Aldrich (Saint Louis, Mo.) and solubilized in ethanol to 1 mM under nitrogen atmosphere. Vitamin E (α-tocopherol) was purchased from Sigma-Aldrich and prepared in ethanol at 1.0 mM (c=3.06×10^4 M^−1 cm^−1 at 294 nm) just prior to experimental use. All test compounds were further diluted in ethanol or aqueous buffer as needed.
Venous blood was collected from healthy volunteers into vacutainer tubes containing sodium EDTA. Plasma was separated by centrifugation at 3000 g for 25 min at 4° C. and adjusted to a density of 1.020 g/mL with KBr. […]
LDL and sdLDL subfractions (0.6 mL each) were incubated with either 10 μL vehicle (ethanol) or 10 μL drug stock solution for 30 min to 1 hr at 37° C. […] Sample TBARS concentrations were determined spectrophotometrically by measuring sample absorbances against a standard curve derived from the hydrolysis of 1,1,3,3-tetramethoxypropane.
Data are presented as mean±S.D. for (N) separate samples or treatment groups. Differences between groups were analyzed using the two-tailed, Student's t-test (for comparisons between only two groups) or ANOVA followed by Dunnett or Student-Newman-Keuls multiple comparisons post-hoc analysis (for comparisons between three or more groups). […]

In a further experiment the test system is unfractionated LDL. The experiment can be described thus: Copper-induced oxidation of unfractionated LDL, TBARS (Example 6). The format is biochemical, human. Conditions: 1.0 μM to 10.0 μM. The procedure:
All test compounds were further diluted in ethanol or aqueous buffer as needed. Venous blood was collected from healthy volunteers into vacutainer tubes containing sodium EDTA. […] Plasma and lipoprotein fractions were maintained at 4° C. and protected from excessive exposure to light. Prior to oxidation experiments, EDTA was removed from the lipoprotein fraction using PD-10 desalting columns (GE Healthcare, Piscataway N.J.). After equilibration of the column with phosphate buffered saline (PBS), 2.5 mL of the lipoprotein fraction was loaded on the column and the flow-through discarded. The lipoprotein was then eluted with 3 mL of PBS. The LDL fractions were further diluted with PBS to obtain a 100 μg/mL apoB100 concentration. […] Sample TBARS concentrations were determined spectrophotometrically by measuring sample absorbances against a standard curve derived from the hydrolysis of 1,1,3,3-tetramethoxypropane. […] Differences between groups were analyzed using the two-tailed, Student's t-test (for comparisons between only two groups) or ANOVA followed by Dunnett or Student-Newman-Keuls multiple comparisons post-hoc analysis (for comparisons between three or more groups).

Take `Cc1c(C)c2c(c(C)c1O)CC[C@@](C)(CCC[C@H](C)CCC[C@H](C)CCCC(C)C)O2` [vitamin E, α-tocopherol, reference compound]: in the experiment with human sdLDL, the sdLDL oxidation result is on record as “did not inhibit sdLDL oxidation except at the highest concentration”. Moreover, in the experiment with unfractionated LDL, the LDL oxidation result is reported as “did not inhibit LDL oxidation at any concentration”.

Regarding `CC/C=C\C/C=C\C/C=C\C/C=C\C/C=C\CCCC(=O)O` [EPA, cis-5,8,11,14,17-Eicosapentaenoic acid], the sdLDL oxidation result in the experiment on human sdLDL is on record as “inhibited sdLDL oxidation over a broad range of concentrations”. For the same compound, the LDL oxidation entry in the experiment with unfractionated LDL is “generally inhibit LDL oxidation”.
